Results as given in PMC12763877 (Journal of Experimental & Clinical Cancer Research : CR, 2025).

Target: T1, APLNR (Homo sapiens, UniProt P35414)
T1 sequence (P35414 1-380): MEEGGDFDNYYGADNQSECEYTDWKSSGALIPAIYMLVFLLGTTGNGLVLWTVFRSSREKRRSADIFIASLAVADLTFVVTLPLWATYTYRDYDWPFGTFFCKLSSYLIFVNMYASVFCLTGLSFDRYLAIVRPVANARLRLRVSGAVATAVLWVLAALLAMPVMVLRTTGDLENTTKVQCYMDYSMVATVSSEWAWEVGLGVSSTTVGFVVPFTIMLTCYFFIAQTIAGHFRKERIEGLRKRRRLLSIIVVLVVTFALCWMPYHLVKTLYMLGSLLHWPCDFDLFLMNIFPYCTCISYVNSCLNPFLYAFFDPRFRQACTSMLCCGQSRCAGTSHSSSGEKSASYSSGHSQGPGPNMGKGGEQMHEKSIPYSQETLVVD
Assay: Surface plasmon resonance (Biacore T200)
Settings: APLNR on CM5 chip, 0.390625-12.5 µM, 1:1 kinetic binding model; read-out: equilibrium dissociation constant (KD)
Method: SPR, which is a reliable method for analyzing real-time biomolecular interactions without labeling, was utilized to identify the binding affinity between APLNR and Candesartan. Candesartan is diluted with sterile phosphate-buffered saline (PBS). The APLNR protein is immobilized on a CM5 sensor chip via coupling, and then different concentrations of Candesartan (12.5 µM, 6.25 µM, 3.125 µM, 1.5625 µM, 0.78125 µM, 0.390625 µM) are injected. The Biacore T200 system can continuously and real-time monitor the changes in resonance units (RU), thereby obtaining the binding situation of candesartan with APLNR. The entire sensorgram is fitted using a 1:1 kinetic binding model, and the equilibrium dissociation constant (KD) is calculated.
To further analyze the binding capacity of candesartan to APLNR, we conducted surface plasmon resonance (SPR) analysis to determine the binding affinity between candesartan and APLNR. […] This gradual increase in RU values indicates specific binding of candesartan to APLNR.

## CCOc1nc2cccc(C(=O)O)c2n1Cc1ccc(-c2ccccc2-c2nnn[nH]2)cc1 [Compound A-2, Candesartan]
  Kd: 1720 nM
